This note sets out measurements from ChEMBL document CHEMBL1151112, “A rapid and sensitive bioassay involving cultured rat glioma cells to screen for substances capable of elevating intracellular cyclic AMP concentration” (J Nat Prod, 1988).

A short description of series [1]: Induction of morphological transformation of rat ASK cells into astrocytes after 1 hr by light microscopy. The class given is functional. The note with it: read-out: ED50 (the source's name).
Series [2] has as its system ASK. The series can be described thus: Induction of morphological transformation of rat ASK cells into astrocytes at 100 ug/ml after 1 hr by light microscopy. Type of series: functional, cell-based.
Series [3] can be described thus: Induction of morphological transformation of rat ASK cells into astrocytes at 0.5 uM after 1 hr by light microscopy. Type of series: functional.
A short description of series [4]: Induction of morphological transformation of rat ASK cells into astrocytes at 0.004 uM after 1 hr by light microscopy. Type of series: functional.
Series [5] can be described thus: Induction of morphological transformation of rat ASK cells into astrocytes at 2.5 uM after 1 hr by light microscopy. Type of series: functional.
Series [6] in a line: Induction of morphological transformation of rat ASK cells into astrocytes at 0.10 uM after 1 hr by light microscopy. Type of series: functional.
Series [7] can be described thus: Induction of morphological transformation of rat ASK cells into astrocytes at 0.02 uM after 1 hr by light microscopy. The class given is functional.
A short description of series [8]: Induction of morphological transformation of rat ASK cells into astrocytes at 50 uM after 1 hr by light microscopy in absence of fetal calf serum. Type of series: functional.
Series [9] can be described thus: Induction of morphological transformation of rat ASK cells into astrocytes at 25 uM after 1 hr by light microscopy in absence of fetal calf serum. Type of series: functional.
A short description of series [10]: Induction of morphological transformation of rat ASK cells into astrocytes at 100 uM after 1 hr by light microscopy in absence of fetal calf serum. Type of series: functional.
The nature of series [11]: Induction of morphological transformation of rat ASK cells into astrocytes at 25 uM after 1 hr by light microscopy in presence of fetal calf serum. The class given is functional.
Series [12] can be described thus: Induction of morphological transformation of rat ASK cells into astrocytes at 6.2 uM after 1 hr by light microscopy in absence of fetal calf serum. The class given is functional.
Series [13] can be described thus: Induction of morphological transformation of rat ASK cells into astrocytes at 150 uM after 1 hr by light microscopy in presence of fetal calf serum. The class given is functional.
Series [14] can be described thus: Induction of morphological transformation of rat ASK cells into astrocytes at 100 uM after 1 hr by light microscopy in presence of fetal calf serum. Type of series: functional.
A short description of series [15]: Induction of morphological transformation of rat ASK cells into astrocytes at 50 uM after 1 hr by light microscopy in presence of colchicine. The class given is functional.
Series [16] is described as follows: Induction of morphological transformation of rat ASK cells into astrocytes at 6.2 uM after 1 hr by light microscopy in presence of colchicine. Type of series: functional.
Series [17] can be described thus: Cytotoxicity against rat ASK cells at 150 uM. The class given is cell-based.
The nature of series [18]: Induction of morphological transformation of rat ASK cells into astrocytes at 50 uM after 1 hr by light microscopy in presence of fetal calf serum. The class given is functional.
Series [19] in a line: Induction of morphological transformation of rat ASK cells into astrocytes at 12.5 uM after 1 hr by light microscopy in presence of fetal calf serum. Type of series: functional.
A short description of series [20]: Induction of morphological transformation of rat ASK cells into astrocytes at 12.5 uM after 1 hr by light microscopy in absence of fetal calf serum. The class given is functional.
A short description of series [21]: Induction of morphological transformation of rat ASK cells into astrocytes at 25 uM after 1 hr by light microscopy in presence of colchicine. The class given is functional.
Series [22] is described as follows: Induction of morphological transformation of rat ASK cells into astrocytes at 12.5 uM after 1 hr by light microscopy in presence of colchicine. Type of series: functional.
Series [23] is described as follows: Induction of morphological transformation of rat ASK cells into astrocytes at 6.2 uM after 1 hr by light microscopy in presence of fetal calf serum. Type of series: functional.
The nature of series [24]: Induction of cAMP production in rat ASK cells assessed per 10^6 cells at 50 uM after 1 hr by radioimmunoassay. Type of series: functional.
Series [25] can be described thus: Induction of morphological transformation of rat ASK cells into astrocytes at 100 uM after 1 hr by light microscopy in presence of colchicine. Type of series: functional.

Each structure is given as a SMILES string. Calls of active or inactive are those of the source. No cut-off for these calls is given here. Bounds are passed on as bounds.

Regarding `CC1=C(/C=C/C(C)=C/C=C/C(C)=C/C=C/C(=O)O)C(C)(C)CCC1`, in [1], the EC50 was > 25 µM.

As for `COC(C)C1=C(/C=C/C(C)=C/C=C/C(C)=C/C(=O)O)C(C)(C)CC1` (configuration not stated), the EC50 in series [1] is < 10 µM.

`CC(/C=C/C12OC1(C)CCCC2(C)C)=C\C=C\C(C)=C\C(=O)O` (configuration not stated): the EC50 in [1] is > 25 µM.

For `C=C[C@@]1(C)CC(=O)[C@@]23OS(=O)O[C@H]4CCC(C)(C)[C@H]([C@H](O)[C@H](OC(C)=O)[C@@]2(C)O1)[C@]43C` (some centres not stated), in [1], the EC50 was determined as 3.12 µM.

For the molecule `C=C[C@@]1(C)CC(=O)[C@]2(O)[C@@]3(C)[C@@H](O)CCC(C)(C)[C@@H]3[C@H](O)[C@H](O)[C@@]2(C)O1`, the EC50 in series [1] was found to be 3.86 µM.

Regarding `C=C[C@@]1(C)CC(O)[C@]2(O)[C@@]3(C)[C@@H](O)CCC(C)(C)[C@@H]3[C@H](O)[C@H](OC(C)=O)[C@@]2(C)O1` (some centres not stated), the EC50 in series [1] was determined as 6.53 µM.

On to `CC1=C(CC/C(C)=C/C=C/C(C)=C/C(=O)O)C(C)(C)CCC1`, for which the EC50 in series [1] is < 10 µM.

As to `CC(=O)C1=C(/C=C/C(C)=C/C=C/C(C)=C/C(=O)O)C(C)(C)CC1`, the EC50 in series [1] was > 25 µM.

Consider `CC1=C(/C=C/C(C)C/C=C/C(C)=C/C(=O)O)C(C)(C)CCC1` (configuration not stated), for which, in series [1], the EC50 was determined as 10 µM.

Regarding `C=C[C@@]1(C)CC(=O)[C@@H]2[C@@]3(C)CCCC(C)(C)[C@@H]3[C@H](O)[C@H](OC(C)=O)[C@@]2(C)O1`, the EC50 in series [1] was > 100 µM.

With `CC(/C=C/C1C(C)CCCC1(C)C)=C\C=C\C(C)=C\C(=O)O` (configuration not stated), the EC50 in [1] was < 10 µM.

Consider `CC(C)=CCC[C@](C)(O)[C@H]1CC[C@]2(C)[C@@H]1[C@H](O)C[C@@H]1[C@@]3(C)CC[C@H](O)C(C)(C)[C@@H]3[C@@H](O[C@@H]3O[C@H](CO)[C@@H](O)[C@H](O)[C@H]3O[C@@H]3O[C@@H](C)[C@H](O)[C@@H](O)[C@H]3O)C[C@]12C`, for which the outcome in series [2] was inactive.

On to `CC(C)=CCC[C@](C)(O[C@@H]1O[C@H](CO)[C@@H](O)[C@H](O)[C@H]1O)[C@H]1CC[C@]2(C)[C@@H]1[C@H](O)C[C@@H]1[C@@]3(C)CC[C@H](O)C(C)(C)[C@@H]3[C@@H](O[C@@H]3O[C@H](CO)[C@@H](O)[C@H](O)[C@H]3O)C[C@]12C`, for which the result in series [2] was inactive.

Regarding `CC(C)=CCC[C@](C)(O[C@@H]1O[C@H](CO)[C@@H](O)[C@H](O)[C@H]1O)[C@H]1CC[C@]2(C)[C@@H]1[C@H](O)C[C@@H]1[C@@]3(C)CC[C@H](O)C(C)(C)[C@@H]3[C@@H](O[C@@H]3O[C@H](CO)[C@@H](O)[C@H](O)[C@H]3O[C@@H]3O[C@@H](C)[C@H](O)[C@@H](O)[C@H]3O)C[C@]12C`, the result in series [2] was inactive.

Regarding `CC(C)=CCC[C@](C)(O[C@@H]1O[C@H](CO)[C@@H](O)[C@H](O)[C@H]1O)[C@H]1CC[C@]2(C)[C@@H]1[C@H](O)C[C@@H]1[C@@]3(C)CC[C@H](O[C@@H]4O[C@H](CO)[C@@H](O)[C@H](O)[C@H]4O[C@@H]4O[C@H](CO)[C@@H](O)[C@H](O)[C@H]4O)C(C)(C)[C@@H]3CC[C@]12C`, the outcome in series [2] was inactive.

As for `CC(C)=CCC[C@](C)(O[C@@H]1O[C@H](CO[C@@H]2OC[C@@H](O)[C@H](O)[C@H]2O)[C@@H](O)[C@H](O)[C@H]1O)[C@H]1CC[C@]2(C)[C@@H]1[C@H](O)C[C@@H]1[C@@]3(C)CC[C@H](O[C@@H]4O[C@H](CO)[C@@H](O)[C@H](O)[C@H]4O[C@@H]4O[C@H](CO)[C@@H](O)[C@H](O)[C@H]4O)C(C)(C)[C@@H]3CC[C@]12C`, in series [2], the outcome was inactive.

On to `CC(C)=CCC[C@](C)(O[C@@H]1O[C@H](CO[C@@H]2OC[C@H](O)[C@H](O)[C@H]2O)[C@@H](O)[C@H](O)[C@H]1O)[C@H]1CC[C@]2(C)[C@@H]1[C@H](O)C[C@@H]1[C@@]3(C)CC[C@H](O[C@@H]4O[C@H](CO)[C@@H](O)[C@H](O)[C@H]4O[C@@H]4O[C@H](CO)[C@@H](O)[C@H](O)[C@H]4O)C(C)(C)[C@@H]3CC[C@]12C`, for which, in series [2], the result was inactive.

Take `CC(C)=CCC[C@](C)(O[C@@H]1O[C@H](CO[C@@H]2O[C@@H](CO)[C@H](O)[C@H]2O)[C@@H](O)[C@H](O)[C@H]1O)[C@H]1CC[C@]2(C)[C@@H]1[C@H](O)C[C@@H]1[C@@]3(C)CC[C@H](O[C@@H]4O[C@H](CO)[C@@H](O)[C@H](O)[C@H]4O[C@@H]4O[C@H](CO)[C@@H](O)[C@H](O)[C@H]4O)C(C)(C)[C@@H]3CC[C@]12C`: the result in [2] was inactive.

For the molecule `CC(C)=CCC[C@](C)(O[C@@H]1O[C@H](CO[C@@H]2O[C@H](CO)[C@@H](O)[C@H](O)[C@H]2O)[C@@H](O)[C@H](O)[C@H]1O)[C@H]1CC[C@]2(C)[C@@H]1[C@H](O)C[C@@H]1[C@@]3(C)CC[C@H](O[C@@H]4O[C@H](CO)[C@@H](O)[C@H](O)[C@H]4O[C@@H]4O[C@H](CO)[C@@H](O)[C@H](O)[C@H]4O)C(C)(C)[C@@H]3CC[C@]12C`, the result in series [2] was inactive.

On to `CC1(C)CC[C@]2(C(=O)O[C@@H]3O[C@H](CO)[C@@H](O)[C@H](O)[C@H]3O)CC[C@]3(C)C(=CC[C@@H]4[C@@]5(C)CC[C@H](O[C@@H]6O[C@H](C(=O)O)[C@@H](O)[C@H](O)[C@H]6O[C@@H]6O[C@H](CO)[C@@H](O)[C@H](O)[C@H]6O)C(C)(C)[C@@H]5CC[C@]43C)[C@@H]2C1`, for which the result in series [2] was inactive.

For the molecule `C=C[C@@]1(C)CC(=O)[C@]2(O)[C@@]3(C)[C@@H](O)CCC(C)(C)[C@@H]3[C@H](O)[C@H](OC(C)=O)[C@@]2(C)O1` [COLFORSIN], in series [1], the EC50 was determined as 0.07 µM. The Activity in series [3] was 100%; in series [4], 0%; in [5], 100%; in series [6], 50%; in series [7], 15%.

As to `CCOC(=O)/C=C(C)/C=C/C=C(C)/C=C/c1c(C)cc(OC)c(C)c1C` [ETRETINATE], the EC50 in series [1] is > 25 µM.

As for `CC(=O)OC/C=C(C)/C=C/C=C(C)/C=C/C1=C(C)CCCC1(C)C` [GILRETINOL ACETATE], the EC50 in series [1] came out at 10 µM.

On to `CC1=C(/C=C/C(C)=C/C=C/C(C)=C\C(=O)O)C(C)(C)CCC1` [ISOTRETINOIN], for which, in [1], the EC50 was < 10 µM.

In the case of `CCNC(=O)/C=C(C)/C=C/C=C(C)/C=C/c1c(C)cc(OC)c(C)c1C` [MOTRETINIDE], the EC50 in series [1] is > 25 µM.

`CC1=C(/C=C/C(C)=C/C=C/C(C)=C/C=O)C(C)(C)CCC1` [RETINAL]: the EC50 in [1] is < 10 µM.

With `COC(=O)/C=C(C)/C=C/C=C(C)/C=C/C1=C(C)CCCC1(C)C` [RETINOIC ACID METHYL ESTER], the EC50 in series [1] is > 25 µM.

As to `CC1=C(/C=C/C(C)=C/C=C/C(C)=C/CO)C(C)(C)CCC1` [RETINOL], in series [1], the EC50 is > 25 µM.

Regarding `CC1=C(/C=C/C(C)=C/C=C/C(C)=C/C(=O)O)C(C)(C)CCC1` [TRETINOIN], the Activity in [8] is 95%; in series [9], 80%; in series [10], 100%; in [11], 20%; in series [12], 50%; in series [13], 65%. For the same molecule, the Activity is 40% in series [14]; 30% in series [15]; 0% in series [16]; “Toxic” in series [17]; 30% in series [18]; 10% in series [19]. In addition, the Activity was 70% in series [20]; 15% in [21]; 0% in series [22]; 0% in series [23]; 20 pmol in series [24]; 50% in series [25]. In addition, the EC50 in [1] was found to be 10 µM.
